These are literature values, as cited in PMC11123991, “Novel 9-Methylanthracene Derivatives as p53 Activators for the Treatment of Glioblastoma Multiforme” (Molecules, 2024).

The data set has as its system MDM4. The conditions noted are these: Figure 1, representative MDM4 inhibitors; reference not given; cited from earlier work.

Turning to `CCOc1cc(/C=C2\C(=O)N(c3ccccc3)N=C2C)cc(Cl)c1OCC(=O)OC` [SJ-172550], the IC50 is 0.87 µM.
